Data: patent publication US20260167673A1, “NOVEL POLYPEPTIDE, POLYPEPTIDE DERIVATIVE AND USE THEREOF” (NANJING ANJI BIOTECHNOLOGY CO., LTD., priority 2023, published 2026)
Marks after values point to notes of the source that are not given here. Where no end group is shown, it is not given here.

Legend:
[1] = system: human esophageal cancer cells Eca-109; assay: CCK8 proliferation inhibition, Eca-109; assay type: cell-based; details: Eca-109, 50 μM, 48 h
Description: (§1) Incubation was continued for 4 h in a cell incubator, an absorbance was measured at 450 nm, and a proliferation inhibition was calculated. Data was presented as mean±SD, and GraphPad Prism 5.0 statistical software was used. A t-test was used for comparison between two groups, while One-way Anova (Dunnett) was used for comparison among a plurality of groups.

[2] = system: human ileocecal cancer cells HCT-8; assay: CCK8 proliferation inhibition, HCT-8; assay type: cell-based; details: HCT-8, 50 μM, 48 h
Description: as §1

[3] = system: human pancreatic cancer cells PANC-1; assay: CCK8 proliferation inhibition, PANC-1; assay type: cell-based; details: PANC-1, 50 μM, 48 h
Description: as §1

[4] = system: human malignant melanoma cells SK-mel-2; assay: CCK8 proliferation inhibition, SK-mel-2; assay type: cell-based; details: SK-mel-2, 50 μM, 48 h
Description: as §1

[5] = system: human multiple myeloma cells LP-1; assay: CCK8 proliferation inhibition, LP-1; assay type: cell-based; details: LP-1, 50 μM, 48 h
Description: as §1

[6] = system: human liver cancer Hep3B cells; assay: Transwell metastasis inhibition, Hep3B; assay type: cell-based; details: 50 μmol/L, 48 h
Description: Melanoma, cervical cancer, ovarian cancer, liver cancer, and lung cancer cells were seeded into transwell chambers, with 100 μL per well. Different doses of the HMMW micropeptide and the novel polypeptide HMMW15-51 were added to each chamber as a treatment group, while no drug was added to a blank group. Then, 0.6 mL of a complete culture medium containing 10% FBS was added to the lower chambers of the transwell to stimulate cell metastasis, and the cells were cultured at 5% CO2 and 37° C. for 48 h. The culture solution was discarded from the wells. The cells were fixed with methanol at room temperature for 30 min, stained with 0.1% crystal violet at room temperature for 10 min, and rinsed with clean water. The upper layer nonmetastatic cells were wiped off with a cotton swab. The cells were observed under a microscope, and four fields of view were selected to take photos and count the cells. A metastasis inhibition (MI) was calculated according to a formula: […]
where Ntest represents the number of cell metastases in the treatment group, and Ncontrol represents the number of cell metastases in the blank control group.
Data was presented as mean±SD, and GraphPad Prism 5.0 statistical software was used.

[7] = system: subcutaneous transplanted tumor model of tongue squamous cell carcinoma cells CAL27; assay: CAL27 subcutaneous transplanted tumor model (Example 7); assay type: in vivo, BALB/c nude mice; details: 2.7 μM/kg, FIG. 10
Description: (1) A large number of human tongue squamous cell carcinoma CAL27 cells were cultured and digested with a 0.25% trypsin solution. After digestion was terminated, a cell suspension was centrifuged at 1000 rpm for 5 min, and the cells were resuspended in a serum-free DMEM culture medium and counted. The cell concentration was adjusted to 5×10^7 cells/mL.
(2) BALB/c nude mice (4-6 week old, female, weighing 14-16 g, adaptively fed in an SPF animal feeding room for 1 week) were inoculated with 100 μL of cell suspensions of corresponding groups under the left axilla, with an injection volume of 5×10^6 cells/mouse;
(3) After inoculation, the tumor growth at the inoculation sites of the nude mice was closely observed. On the 7th day after inoculation, white nodules appeared at the inoculation sites and could move subcutaneously upon touch. As the tumor tissues grew, hard tumor blocks gradually formed at the inoculation sites, and the average volume of the tumor tissues reached 80 mm^3 in about 14 days. The BALB/c nude mice were randomly divided into 3 groups (a normal saline group served as a blank control, and the dose of the micropeptide HMMW and the novel polypeptide HMMW15-51 was 2.7 μM/kg), with 10 mice in the blank group and 6 mice in each other group. […]
(4) The volume of the transplanted tumor was measured and recorded every three days. […]

MERAGVPGFSPRRSSVEAKMQSTSCSVRKSSTVTAWPAVVLLLSWGQRRGG [HMMW]
Inhibition (%) [1]: 63.071 ± 2.982 % | OD [1]: 0.350 ± 0.028 | Inhibition (%) [2]: 48.687 ± 3.785 % | OD [2]: 0.482 ± 0.036 | Inhibition (%) [3]: 50.273 ± 6.135 % | OD [3]: 0.424 ± 0.052 | Inhibition (%) [4]: 46.311 ± 4.884 % | OD [4]: 0.466 ± 0.042 | Inhibition (%) [5]: 47.561 ± 4.259 % | OD [5]: 0.462 ± 0.038 | Inhibition (%) ([6]; Hep3B metastasis): 88.13*** % | Number of cell metastases ([6]; Hep3B): 70 ± 75.82 | in vivo tumorigenicity of CAL27 cells compared with normal saline control [7]: significantly inhibit
